The target of the assay is T1, human C1 r (Homo sapiens, UniProt P00736).
T1 construct: purchased Enzyme Research Labs (South Bend, Ind.)
T1 sequence (P00736 464-705 limits assumed): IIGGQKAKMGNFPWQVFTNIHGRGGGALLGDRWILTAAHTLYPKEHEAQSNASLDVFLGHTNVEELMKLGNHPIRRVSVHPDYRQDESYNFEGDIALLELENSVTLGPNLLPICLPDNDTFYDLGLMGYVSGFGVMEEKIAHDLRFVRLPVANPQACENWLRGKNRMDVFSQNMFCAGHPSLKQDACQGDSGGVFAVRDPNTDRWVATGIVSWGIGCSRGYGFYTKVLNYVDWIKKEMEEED
T1 sequence (P00736 18-463 partner limits assumed): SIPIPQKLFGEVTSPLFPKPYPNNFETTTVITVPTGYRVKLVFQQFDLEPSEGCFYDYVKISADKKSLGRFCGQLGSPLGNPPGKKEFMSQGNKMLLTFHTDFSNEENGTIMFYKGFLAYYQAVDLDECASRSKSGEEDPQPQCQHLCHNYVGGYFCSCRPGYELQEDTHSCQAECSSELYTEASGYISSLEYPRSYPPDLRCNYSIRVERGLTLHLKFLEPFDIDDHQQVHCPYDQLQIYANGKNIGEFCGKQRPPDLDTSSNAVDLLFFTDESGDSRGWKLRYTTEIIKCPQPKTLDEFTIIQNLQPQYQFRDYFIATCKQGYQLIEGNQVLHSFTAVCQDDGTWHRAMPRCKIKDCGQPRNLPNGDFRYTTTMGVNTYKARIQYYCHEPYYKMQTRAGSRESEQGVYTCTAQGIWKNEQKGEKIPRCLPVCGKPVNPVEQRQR
Put plainly: Assay of C1r Enzyme Activity (Assay 1), thioester substrate z-Gly-Arg-S-Bzl with DTNB. The class given is biochemical. Particulars: Table 1 and text, pH 7.4-7.5, read-out: Inhibition of Clr Assay 1 (IC50). As to the method:
Assay of C1 r Enzyme Activity Purified human C1 r was obtained commercially from Enzyme Research Labs (South Bend, Ind.). The enzyme is stored frozen at -70° C. at a stock concentration of about 1 mg/mL of protein until the enzyme is needed. […] The thioester substrate, z-Gly-Arg-S-Bzl, for C1 r assays (McRae, et al., 1981) is obtained commercially from Enzyme System Products (Livermore, Calif.). All other reagents were obtained from Sigma Chemical Co. (St. Louis, Mo.). The procedure for assaying the inhibition of C1 r enzyme activity is as follows. A 5 mM stock solution of z-Gly-Arg-S-Bzl is made in dimethylsulfoxide (DMSO) and stored at room temperature until needed. The stock substrate solution is diluted 3 parts stock substrate solution to 7 parts distilled water to make a 1.5 mM working substrate solution. The working substrate solution is made just before it is needed. A fresh solution of 20 μg/mL of C1 r enzyme is made in 10 mM Tris buffer, pH 7.4. The enzyme solution can be stored on ice for up to an hour. […] Compounds at concentrations ranging from 1 mM to 0.010 mM are dissolved in DMSO and a 10 μL aliquot of each concentration is deposited in a well of a 96-well microtiter plate. Fifty microliters of the working substrate solution and 50 μL of DTNB solution are then dispensed in the wells of the microtiter plate, followed by the immediate addition of 50 μL of the C1 r enzyme solution to start the assay. The assay produces a yellow color that is read in the kinetic mode using a Molecular Devices Thermomax microplate reader set to a wavelength of 405 nm. The assay background is followed by monitoring wells that contain substrate, buffer, and DTNB solutions but no enzyme. All assays are performed in triplicate at each inhibitor concentration tested. Values for each inhibitor concentration are reported as optical density (OD)/minute.

Our source for the IC50 values is patent US5652237A, “2-substituted-4H-3, 1-benzoxazin-4-ones and benzthiazin-4-ones as inhibitors of complement C1r protease for the treatment of inflammatory processes” (Warner-Lambert Company, priority 1995, dated 1997).

As a reminder, the IC50 is the concentration at which inhibition is half-maximal.

Turning to `O=c1oc(Nc2ccccc2I)nc2cc(C(F)(F)F)ccc12` [Example 31, 2-(2-Iodo-phenylamino)-7-trifluoromethylbenzo[d][1,3]oxazin-4-one], the IC50 amounted to 0.4 µM.
For the compound `CN(C(=O)c1cccc(I)c1)c1nc2ccccc2c(=O)o1` [Example 37, 3-Iodo-N-methyl-N-(4-oxo-4H-benzo[d][1,3]oxazin-2-yl)-benzamide], the half-maximal inhibitory concentration (IC50) turned out to be 20 µM.
With `Cc1ccccc1C(=O)N(C)c1nc2ccccc2c(=O)o1` [Example 36, 2,N-Dimethyl-N-(4-oxo-4H-benzo[d][1,3]oxazin-2-yl)-benzamide] the figure was over 67 µM; with `O=c1oc(Nc2ccccc2I)nc2cc(Cl)c(Cl)cc12` [Example 29, 6,7-Dichloro-2-(2-iodo-phenylamino)-benzo[d][1,3]oxazin-4-one], 0.5 µM.
On to `COc1ccccc1C(=O)N(C)c1nc2ccccc2c(=O)o1` [Example 35, 2-Methoxy-N-methyl-N-(4-oxo-4H-benzo[d][1,3]oxazin-2-yl)-benzamide], for which the concentration for half-maximal inhibition (IC50) is over 66 µM.
In the case of `O=c1oc(Nc2cccc(I)c2)nc2ccccc12` [Example 5, 2-(3-Iodo-phenylamino)-benzo[d][1,3]oxazin-4-one], the IC50 is over 67 µM.
Regarding `O=c1oc(Nc2c(Cl)cccc2Cl)nc2ccccc12` [Example 53, 2-(2,6-Dichloro-phenylamino)-benzo[d][1,3]oxazin-4-one], the IC50 stood at 1.5 µM.
Turning to `Cc1cccc2nc(N(C)C(=O)c3ccccc3I)oc(=O)c12` [Example 39, 2-Iodo-N-methyl-N-(5-methyl-4-oxo-4H-benzo[d][1,3]oxazin-2-yl)-benzamide], the IC50 was over 66 µM.
As to `O=c1oc(Nc2ccccc2OC(F)(F)F)nc2ccccc12` [Example 9, 2-(2-Trifluoromethoxy-phenylamino)-benzo[d][1,3]oxazin-4-one], the IC50 was determined as 4 µM.
Take `O=c1oc(Nc2ccccc2I)nc2cccc(Cl)c12` [Example 21, 5-Chloro-2-(2-iodo-phenylamino)-benzo[d][1,3]oxazin-4-one]: the half-inhibitory concentration (IC50) is 14.5 µM.
As for `O=c1oc(Nc2ccccc2Br)nc2ccccc12` [Example 3, 2-(2-Bromo-phenylamino)-benzo[d][1,3]oxazin-4-one], the IC50 stood at 5.1 µM.
In the case of `O=c1oc(Nc2c(Cl)cccc2Cl)nc2cc(Cl)ccc12` [Example 50, 7-Chloro-2-(2,6-dichloro-phenylamino)-benzo[d][1,3]oxazin-4-one], the IC50 was determined as 0.4 µM.
To `CN(C(=O)c1c(Cl)cccc1Cl)c1nc2ccccc2c(=O)o1` [Example 13, 2,6-Dichloro-N-methyl-N-(4-oxo-4H-benzo[d][1,3]oxazin-2-yl)-benzamide] belongs 8 µM; to `O=c1oc(Nc2ccccc2I)nc2cc([N+](=O)[O-])ccc12` [Example 30, 2-(2-Iodo-phenylamino)-7-nitro-benzo[d][1,3]oxazin-4-one], 0.75 µM; to `CN(C(=O)c1ccccc1C(F)(F)F)c1nc2ccccc2c(=O)o1` [Example 16, N-Methyl-N-(4-oxo-4H-benzo[d][1,3]oxazin-2-yl)-2-trifluoromethyl-benzamide], 1.5 µM.
In the case of `Cc1ccc2c(=O)oc(Nc3ccccc3Cl)nc2c1` [Example 45, 2-(2-Chloro-phenylamino)-7-methyl-benzo[d][1,3]oxazin-4-one], the half-maximal inhibitory concentration (IC50) was found to be 1.4 µM.
In the case of `Cc1ccccc1Nc1nc2ccccc2c(=O)o1` [Example 51, 2-o-Tolylamino-benzo[d][1,3]oxazin-4-one], the IC50 turned out to be 31 µM.
In the case of `CSc1ccccc1C(=O)N(C)c1nc2ccccc2c(=O)o1` [Example 15, N-Methyl-2-methylsulfanyl-N-(4-oxo-4H-benzo[d][1,3]oxazin-2-yl)-benzamide], the IC50 turned out to be 0.8 µM.
To `Cc1ccc2nc(N(C)C(=O)c3ccccc3I)oc(=O)c2c1` [Example 40, 2-Iodo-N-methyl-N-(6-methyl-4-oxo-4H-benzo[d][1,3]oxazin-2-yl)-benzamide] belongs 1.3 µM; to `CN(C(=O)c1ccccc1Br)c1nc2ccccc2c(=O)o1` [Example 14, 2-Bromo-N-methyl-N-(4-oxo-4H-benzo[d][1,3]oxazin-2-yl)-benzamide], 4 µM.
As for `O=c1oc(Nc2ccc(I)cc2)nc2ccccc12` [Example 6, 2-(4-Iodo-phenylamino)-benzo[d][1,3]oxazin-4-one], the IC50 is over 67 µM.
As for `N=C(N)c1ccc2cc(OC(=O)c3ccc(N=C(N)N)cc3)ccc2c1` [FUT-175, reference compound], the IC50 was found to be 12 µM.
As to `CN(C(=O)c1ccccc1I)c1nc2cc(Cl)ccc2c(=O)o1` [Example 42, N-(7-Chloro-4-oxo-4H-benzo[d][1,3]oxazin-2-yl)-2-iodo-N-methyl-benzamide], the IC50 was found to be 18 µM.
As to `CN(C(=O)c1ccccc1I)c1nc2cc(Cl)c(Cl)cc2c(=O)o1` [Example 56, N-(6,7-Dichloro-4-oxo-4H-benzo[d][1,3]oxazin-2-yl)-2-iodo-N-methyl-benzamide], the IC50 turned out to be 8 µM.
To `CN(c1nc2ccccc2c(=O)o1)c1ccccc1I` [Example 10, 2-[Methyl-(2-iodo-phenyl)-amino]benzo[d][1,3]oxazin-4-one] belongs 1.4 µM; to `O=c1oc(Nc2ccccc2I)nc2ccc(Cl)cc12` [Example 22, 6-Chloro-2-(2-iodo-phenylamino)-benzo[d][1,3]oxazin-4-one], 4 µM; to `O=c1oc(Nc2ccccc2I)nc2cc3ccccc3cc12` [Example 20, 2-(2-Iodo-phenylamino)-naphtho[2,3-d][1,3]oxazin-4-one], 1.4 µM.
With `O=c1oc(Nc2ccccc2I)nc2cc(F)c(F)cc12` [Example 46, 6,7-Difluoro-2-(2-iodo-phenylamino)-benzo[d][1,3]oxazin-4-one] the figure was 7 µM; with `CN(C(=O)c1cccc2ccccc12)c1nc2ccccc2c(=O)o1` [Example 57, Naphthalene-1-carboxylic acid methyl-(4-oxo-4H-benzo[d][1,3]oxazin-2-yl)-amide], 23.4 µM; with `CN(C(=O)c1ccccc1I)c1nc2ccccc2c(=O)o1` [Example 12, 2-Iodo-N-methyl-N-(4-oxo-4H-benzo[d][1,3]oxazin-2-yl)-benzamide], 3.1 µM.
As for `Cc1ccc2c(=O)oc(Nc3ccccc3I)nc2c1` [Example 28, 2-(2-Iodo-phenylamino)-7-methyl-benzo[d][1,3]oxazin-4-one], the IC50 amounted to 0.8 µM.
`O=c1oc(Nc2ccccc2I)nc2cc(Cl)ccc12` [Example 23, 7-Chloro-2-(2-iodo-phenylamino)-benzo[d][1,3]oxazin-4-one]: the half-maximal inhibitory concentration (IC50) was determined as 0.7 µM.
As for `COc1ccc2c(=O)oc(N(C)C(=O)c3ccccc3I)nc2c1` [Example 44, 2-Iodo-N-(7-methoxy-4-oxo-4H-benzo[d][1,3]oxazin-2-yl)-N-methyl-benzamide], the IC50 was over 66 µM.
To `Cc1ccc2nc(Nc3ccccc3I)oc(=O)c2c1` [Example 27, 2-(2-Iodo-phenylamino)-6-methyl-benzo[d][1,3]oxazin-4-one] belongs over 66 µM.
`O=c1oc(Nc2ccccc2I)nc2ccccc12` [Example 4, 2-(2-Iodo-phenylamino)-benzo[d][1,3]oxazin-4-one]: the IC50 worked out at 3.5 µM.
Regarding `Cc1cccc2nc(Nc3ccccc3I)oc(=O)c12` [Example 26, 2-(2-Iodo-phenylamino)-5-methyl-benzo[d][1,3]oxazin-4-one], the IC50 is over 66 µM.
Take `COc1ccc(C(=O)N(C)c2nc3ccccc3c(=O)o2)cc1` [Example 59, 4-Methoxy-N-methyl-N-(4-oxo-4H-benzo[d][1,3]oxazin-2-yl)-benzamide]: the IC50 is 19 µM.
With `CN(C(=O)c1ccccc1I)c1nc2cccc(Cl)c2c(=O)o1` [Example 54, N-(5-Chloro-4-oxo-4H-benzo[d][1,3]oxazin-2-yl)-2-iodo-N-methyl-benzamide], the IC50 turned out to be 36 µM.
